Reference: the NIST ThermoML archive (doi:10.1016/j.jct.2019.02.020)

Assay: mn = molality of the nth substance listed, in mol/kg
Conditions: 100 kPa, Liquid; for viscosity: Falling or rolling sphere viscometry; for mass density: Vibrating tube method

O=S(=O)(O)O [sulfuric acid] + O
Conditions | mass density [kg/m3] | viscosity [mPa·s]
283.15 K, m1 = 0.05 | 1003.29 | 1.322
283.15 K, m1 = 0.1 | 1006.64 | 1.326
283.15 K, m1 = 0.1498 | 1009.9 | 1.339
283.15 K, m1 = 0.1997 | 1013.13 | 1.352
283.15 K, m1 = 0.2501 | 1016.29 | 1.363
283.15 K, m1 = 0.2999 | 1019.54 | 1.375
283.15 K, m1 = 0.3312 | – | 1.386
283.15 K, m1 = 0.3996 | 1025.76 | 1.399
283.15 K, m1 = 0.5001 | 1031.92 | 1.415
283.15 K, m1 = 0.6672 | – | 1.48
283.15 K, m1 = 0.9962 | – | 1.502
283.15 K, m1 = 1.331 | – | 1.653
283.15 K, m1 = 1.669 | – | 1.733
283.15 K, m1 = 2 | – | 1.817
283.15 K, m1 = 2.327 | – | 1.914
283.15 K, m1 = 2.667 | – | 2.017
283.15 K, m1 = 2.994 | – | 2.154
283.15 K, m1 = 3.33 | – | 2.28
283.15 K, m1 = 3.667 | – | 2.331
288.15 K, m1 = 0.05 | 1002.61 | 1.151
288.15 K, m1 = 0.1 | 1005.89 | 1.156
288.15 K, m1 = 0.1498 | 1009.09 | 1.167
288.15 K, m1 = 0.1997 | 1012.25 | 1.179
288.15 K, m1 = 0.2501 | 1015.35 | 1.19
288.15 K, m1 = 0.2999 | 1018.53 | 1.2
288.15 K, m1 = 0.3312 | – | 1.212
288.15 K, m1 = 0.3996 | 1024.63 | 1.221
288.15 K, m1 = 0.5001 | 1030.68 | 1.236
288.15 K, m1 = 0.6672 | – | 1.294
288.15 K, m1 = 0.9962 | – | 1.321
288.15 K, m1 = 1.331 | – | 1.45
288.15 K, m1 = 1.669 | – | 1.519
288.15 K, m1 = 2 | – | 1.589
288.15 K, m1 = 2.327 | – | 1.672
288.15 K, m1 = 2.667 | – | 1.768
288.15 K, m1 = 2.994 | – | 1.882
288.15 K, m1 = 3.33 | – | 1.978
288.15 K, m1 = 3.667 | – | 2.036
293.15 K, m1 = 0.05 | 1001.64 | 1.014
293.15 K, m1 = 0.1 | 1004.86 | 1.019
293.15 K, m1 = 0.1498 | 1007.99 | 1.029
293.15 K, m1 = 0.1997 | 1011.1 | 1.04
293.15 K, m1 = 0.2501 | 1014.14 | 1.049
293.15 K, m1 = 0.2999 | 1017.27 | 1.058
293.15 K, m1 = 0.3312 | 1019.13 | 1.07
293.15 K, m1 = 0.3996 | 1023.27 | 1.077
293.15 K, m1 = 0.5001 | 1029.22 | 1.091
293.15 K, m1 = 0.6672 | 1039.1 | 1.144
293.15 K, m1 = 0.9962 | 1057.95 | 1.172
293.15 K, m1 = 1.331 | 1076.44 | 1.282
293.15 K, m1 = 1.669 | 1094.43 | 1.343
293.15 K, m1 = 2 | 1111.51 | 1.406
293.15 K, m1 = 2.327 | 1127.75 | 1.476
293.15 K, m1 = 2.667 | 1143.44 | 1.569
293.15 K, m1 = 2.994 | 1161.33 | 1.663
293.15 K, m1 = 3.33 | 1173.91 | 1.725
293.15 K, m1 = 3.667 | 1188.61 | 1.794
298.15 K, m1 = 0.05 | 1000.42 | 0.9019
298.15 K, m1 = 0.1 | 1003.57 | 0.9068
298.15 K, m1 = 0.1498 | 1006.66 | 0.916
298.15 K, m1 = 0.1997 | 1009.71 | 0.9259
298.15 K, m1 = 0.2501 | 1012.71 | 0.9338
298.15 K, m1 = 0.2999 | 1015.79 | 0.9443
298.15 K, m1 = 0.3312 | – | 0.9534
298.15 K, m1 = 0.3996 | 1021.7 | 0.9597
298.15 K, m1 = 0.5001 | 1027.57 | 0.9715
298.15 K, m1 = 0.6672 | – | 1.024
298.15 K, m1 = 0.9962 | – | 1.049
298.15 K, m1 = 1.331 | – | 1.144
298.15 K, m1 = 1.669 | – | 1.197
298.15 K, m1 = 2 | – | 1.252
298.15 K, m1 = 2.327 | – | 1.314
298.15 K, m1 = 2.667 | – | 1.391
298.15 K, m1 = 2.994 | – | 1.474
298.15 K, m1 = 3.33 | – | 1.534
298.15 K, m1 = 3.667 | – | 1.596
303.15 K, m1 = 0.05 | 998.96 | 0.8093
303.15 K, m1 = 0.1 | 1002.07 | 0.8127
303.15 K, m1 = 0.1498 | 1005.1 | 0.8218
303.15 K, m1 = 0.1997 | 1008.12 | 0.8307
303.15 K, m1 = 0.2501 | 1011.07 | 0.8376
303.15 K, m1 = 0.2999 | 1014.11 | 0.8489
303.15 K, m1 = 0.3312 | 1015.94 | 0.8561
303.15 K, m1 = 0.3996 | 1019.95 | 0.8615
303.15 K, m1 = 0.5001 | 1025.74 | 0.8719
303.15 K, m1 = 0.6672 | 1035.36 | 0.9256
303.15 K, m1 = 0.9962 | 1053.74 | 0.9448
303.15 K, m1 = 1.331 | 1071.78 | 1.026
303.15 K, m1 = 1.669 | 1089.37 | 1.073
303.15 K, m1 = 2 | 1106.08 | 1.123
303.15 K, m1 = 2.327 | 1122.01 | 1.179
303.15 K, m1 = 2.667 | 1138.64 | 1.244
303.15 K, m1 = 2.994 | 1155.01 | 1.319
303.15 K, m1 = 3.33 | 1167.41 | 1.374
303.15 K, m1 = 3.667 | 1181.92 | 1.429
308.15 K, m1 = 0.05 | 997.29 | 0.7303
308.15 K, m1 = 0.1 | 1000.35 | 0.7339
308.15 K, m1 = 0.1498 | 1003.35 | 0.7412
308.15 K, m1 = 0.1997 | 1006.33 | 0.7497
308.15 K, m1 = 0.2501 | 1009.25 | 0.7567
308.15 K, m1 = 0.2999 | 1012.25 | 0.7652
308.15 K, m1 = 0.3312 | – | 0.7753
308.15 K, m1 = 0.3996 | 1018.02 | 0.7799
308.15 K, m1 = 0.5001 | 1023.74 | 0.7884
308.15 K, m1 = 0.6672 | – | 0.8371
308.15 K, m1 = 0.9962 | – | 0.8554
308.15 K, m1 = 1.331 | – | 0.9337
308.15 K, m1 = 1.669 | – | 0.9775
308.15 K, m1 = 2 | – | 1.016
308.15 K, m1 = 2.327 | – | 1.059
308.15 K, m1 = 2.667 | – | 1.116
308.15 K, m1 = 2.994 | – | 1.188
308.15 K, m1 = 3.33 | – | 1.238
308.15 K, m1 = 3.667 | – | 1.29
313.15 K, m1 = 0.05 | 995.42 | 0.6585
313.15 K, m1 = 0.1 | 998.45 | 0.6663
313.15 K, m1 = 0.1498 | 1001.41 | 0.6726
313.15 K, m1 = 0.1997 | 1004.36 | 0.6808
313.15 K, m1 = 0.2501 | 1007.25 | 0.6869
313.15 K, m1 = 0.2999 | 1010.22 | 0.698
313.15 K, m1 = 0.3312 | – | 0.7043
313.15 K, m1 = 0.3996 | 1015.94 | 0.7078
313.15 K, m1 = 0.5001 | 1021.61 | 0.716
313.15 K, m1 = 0.6672 | – | 0.7631
313.15 K, m1 = 0.9962 | – | 0.7748
313.15 K, m1 = 1.331 | – | 0.8534
313.15 K, m1 = 1.669 | – | 0.8905
313.15 K, m1 = 2 | – | 0.9243
313.15 K, m1 = 2.327 | – | 0.9706
313.15 K, m1 = 2.667 | – | 1.019
313.15 K, m1 = 2.994 | – | 1.077
313.15 K, m1 = 3.33 | – | 1.125
313.15 K, m1 = 3.667 | – | 1.171
318.15 K, m1 = 0.05 | 993.38 | 0.6063
318.15 K, m1 = 0.1 | 996.37 | 0.6087
318.15 K, m1 = 0.1498 | 999.3 | 0.6141
318.15 K, m1 = 0.1997 | 1002.21 | 0.6219
318.15 K, m1 = 0.2501 | 1005.09 | 0.6274
318.15 K, m1 = 0.2999 | 1008.03 | 0.6362
318.15 K, m1 = 0.3312 | – | 0.6443
318.15 K, m1 = 0.3996 | 1013.7 | 0.6502
318.15 K, m1 = 0.5001 | 1019.32 | 0.6543
318.15 K, m1 = 0.6672 | – | 0.6978
318.15 K, m1 = 0.9962 | – | 0.7101
318.15 K, m1 = 1.331 | – | 0.7819
318.15 K, m1 = 1.669 | – | 0.8167
318.15 K, m1 = 2 | – | 0.8473
318.15 K, m1 = 2.327 | – | 0.8914
318.15 K, m1 = 2.667 | – | 0.9455
318.15 K, m1 = 2.994 | – | 0.9872
318.15 K, m1 = 3.33 | – | 1.027
318.15 K, m1 = 3.667 | – | 1.07
